Experiment [1] in a line: Inhibition of Schizosaccharomyces pombe HTA in presence of 100 uM acetyl-CoA substrate.
Experiment [2] can be described thus: Inhibition of Cryptococcus neoformans H99 HTA expressed in Escherichia coli BL21(DE3) cells.
Experiment [3] is described as follows: Inhibition of Schizosaccharomyces pombe HTA in presence of 10 uM acetyl-CoA substrate.

In general, IC50 refers to the concentration that gives 50% inhibition. What is called Ki is the dissociation constant of the complex between target and ligand, obtained from inhibition or displacement. High values mean lower affinity, low ones higher affinity. In the case of `NC(=O)c1cccc2c1NC(C(=O)O)C1CC=CC21` (centres undefined), the IC50 in experiment [1] was determined as 287 µM; in experiment [2], 4.5 µM; in experiment [3] it was 156 µM. In experiment [2], this molecule came in with a Ki of 91.7 µM.
